Test results: patent publication US20240279304A1, “DSG2 COMPOSITIONS AND METHODS” (Arvada Therapeutics, Inc., priority 2021, published 2024)

Columns and labels:
anti-DSG2 antibody [1] = experiment: anti-DSG2 antibody MSD assay; inhibition of the antibody signal by the fusion polypeptide; antibody at 200 ng/mL
anti-DSG2 antibody [2] = experiment: anti-DSG2 antibody MSD assay; inhibition of the antibody signal by the fusion polypeptide; antibody at 1000 ng/mL
[3] = system: human iPSC-derived cardiomyocytes; experiment: CiPA multielectrode array (MEA) assay, cell index; assay type: cell-based
Procedure: To determine the effect of anti-DSG2 antibodies in cardiomyocytes, the cardiac in vitro proarrhythmia (CiPA) assay was performed (Sager et al. Am Heart J 2014; 167:292-300; the contents of which are herein incorporated by reference in its entirety). CiPA is envisioned to consist of four components: (1) an evaluation of the effects of test agents on cardiac ion channel assays; (2) in silico modeling of the cardiac action potential based on the ion channel results to integrate the data with cardiac function; (3) experimental measurement of test agent effects in human ventricular myocytes to confirm the modeling result; and (4) scoring the results. The multielectrode array (MEA) assay is a component of CiPA which uses human induced pluripotent stem cell (iPSC)-derived cardiomyocytes to evaluate two-dimensional excitation propagation by recording spontaneous ECG-like field potentials. The sodium spike quantified below is a measurement of the specific sodium channel current in the cardiomyocyte and is also described in Blinova K, et al. Cell Rep. 2018 Sep. 25; 24(13):3582-3592 (the contents of which are herein incorporated by reference in its entirety). CiPA is considered a clinically validated cardiomyocyte-based assay by the FDA and the EMA. […] The parameters evaluated include measuring a change in the spike in the component of electrical signal propagation (e.g. sodium spike) and cell index—a function of cell impedance and cell number. Changes in sodium spike may be indicative of arrhythmia and a change in cell index (CI) may be indicative of changes to cell connectivity.
Cell index is inversely related the cell layer's conductivity to electrical current. Increased conductivity across the cell layer, may indicate that there are more gaps in the cell layer, implying that the cells are less well-adhered to each other. Thus, increased conductivity across the cell layer, may result in lower cell index. […] The concentration of anti-DSG2 antibodies varied from 0.00005 μg/mL to 5 μg/mL. […] The concentration of lidocaine varied from 3 μM to 100 μM. […] The concentration of anti-DSG2 antibodies varied from 0.00005 μg/mL to 5 μg/mL.

[4] = system: human iPSC cardiomyocytes; experiment: CiPA multielectrode array (MEA) assay, sodium spike; assay type: cell-based; settings: anti-DSG2 antibodies 0.5 μg/mL; lidocaine 10 μM; negative controls 0.5 g/mL as printed; 0 to 96 hours
Procedure: To determine the effect of anti-DSG2 antibodies in cardiomyocytes, the cardiac in vitro proarrhythmia (CiPA) assay was performed (Sager et al. Am Heart J 2014; 167:292-300; the contents of which are herein incorporated by reference in its entirety). CiPA is envisioned to consist of four components: (1) an evaluation of the effects of test agents on cardiac ion channel assays; (2) in silico modeling of the cardiac action potential based on the ion channel results to integrate the data with cardiac function; (3) experimental measurement of test agent effects in human ventricular myocytes to confirm the modeling result; and (4) scoring the results. […] The sodium spike quantified below is a measurement of the specific sodium channel current in the cardiomyocyte and is also described in Blinova K, et al. Cell Rep. […] The parameters evaluated include measuring a change in the spike in the component of electrical signal propagation (e.g. sodium spike) and cell index—a function of cell impedance and cell number. […]
Commercially available anti-DSG2 antibodies were tested in the cardiomyocyte CiPA assay. […] The voltage (μV) is measured at time intervals of 0, 1 hour, 12 hours, 24 hours, 48 hours, 72 hours, and 96 hours. […]

Molecule: recombinant human desmoglein-2 Fc chimera protein, CF (DSG2FP#1) (Fc fusion)
- % inhibition (anti-DSG2 antibody [1]): 63.8%
- % inhibition (anti-DSG2 antibody [2]): 88.4%

Molecule: CCN(CC)CC(=O)Nc1c(C)cccc1C [Lidocaine, lidocaine]
- Cell Index (+/- SEM) ([3]; 3 μM): 19.9 (2.84)
- Cell Index (+/- SEM) ([3]; 10 μM): 20.2 (3.1)
- Cell Index (+/- SEM) ([3]; 30 μM): 18.7 (2.0)
- Cell Index (+/- SEM) ([3]; 100 μM): 11.0 (4.8)
- effect on cell index (in words) ([3]; lidocaine 3 μM to 100 μM, antibodies 0.00005 μg/mL to 5 μg/mL): marked reduction in cell index and likely cell death
- effect on cardiomyocyte sodium spike (in words) [4]: dampen the sodium spike
